Key:
[1] = target: T1, μ-opioid receptor (Homo sapiens (Human), UniProt P35372); test: μ-opioid receptor radioligand binding assay ([3H]-diprenorphine); conditions: binding affinity
Experimental: μ-Opioid Receptor Binding Assay Procedures: Radioligand dose-displacement binding assays for μ-opioid receptors used 0.3 nM [^3H]-diprenorphine (Perkin Elmer, Shelton, Conn.), with […] membrane protein/well in a final volume of 500 μl binding buffer (10 mM MgCl2, 1 mM EDTA, 5% DMSO, 50 mM HEPES, pH 7.4). Reactions were carried out in the absence or presence of increasing concentrations of unlabeled naloxone. All reactions were conducted in 96-deep well polypropylene plates for 2 hours at room temperature. Binding reactions were terminated by rapid filtration onto 96-well Unifilter GF/C filter plates (Perkin Elmer, Shelton, Conn.), presoaked in 0.5% polyethylenimine using a 96-well tissue harvester (Perkin Elmer, Shelton, Conn.) followed by performing three filtration washes with 500 μl of ice-cold binding buffer. Filter plates were subsequently dried at 50° C. for 2-3 hours. BetaScint scintillation cocktail (Perkin Elmer, Shelton, Conn.) was added (50 μl/well), and plates were counted using a Packard Top-Count for 1 min/well. The data were analyzed using the one-site competition curve fitting functions in GraphPad PRISM™ v. 3.0 or higher (San Diego, Calif.), or an in-house function for one-site competition curve-fitting.

[2] = target: κ-opioid receptor (Homo sapiens (Human), UniProt P41145); test: κ-opioid receptor [35S]GTPγS functional assay, HEK-293 or CHO cells (Table 4); type: biochemical
[3] = target: T1, μ-opioid receptor; test: μ-opioid receptor [35S]GTPγS functional assay, U-2 OS cells (Table 5); type: biochemical
Summary of the method: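 Membranes (0.026 mg/mL) from cells expressing recombinant human μ-opioid receptor in a U-2 OS background were incubated with 0.20 nM [35S]GTPγS, 3 mM GDP and saponin in 20 mM HEPES pH 7.4, 100 mM NaCl, 10 mM MgCl2 for 30 min at about 25 °C. Filter-bound radioactivity counted; sigmoidal dose-response fits gave values, Emax relative to DAMGO.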

With NC(=O)[C@@H]1C[C@]23CCN(CC4CC4)[C@H](Cc4ccc(O)cc42)[C@]3(O)C1 [Compound 31, (2R,3aS,4R,9bS)-12-(cyclopropylmethyl)-3a,8-dihydroxy-1,2,3,3a,4,5-hexahydro-4,9b-(epiminoethano)cyclopenta-[a]naphthalene-2-carboxamide] the Ki [1] was 10.2 ± 3.58 nM, the Emax ([2]; relative to U69,593) was 35.3 ± 2.19% and the EC50 ([2]; κ GTP) was 6.95 ± 0.97 nM. It also gave an Emax ([3]; relative to DAMGO) of 49 ± 3.76% and an EC50 ([3]; μ GTP) of 2.35 ± 0.32 nM.

Source: patent US9656962B2, “Ring-contracted morphinans and the use thereof” (Purdue Pharma L.P., priority 2013, dated 2017)
